Measurements published in PMC8000724, “Trans-Epithelial Transport, Metabolism, and Biological Activity Assessment of the Multi-Target Lupin Peptide [sequence] (P5) and Its Metabolite [sequence] (P5-Met)” (Nutrients, 2021).

Experiments:
secreted mature PCSK9 = test: Quantification of PCSK9 secreted by HepG2 cells through ELISA; format: cell-based, human; settings: HepG2 supernatants, 50 µM, mean ± SD
Procedure: The supernatants collected from treated HepG2 cells (50.0 μM of P5 and/or P5-met) were centrifuged at 600 × g for 10 min at 4 °C and ELISA assay performed using protocol already optimized. They were recovered and diluted to the ratio 1:10 with DMEM in a new ice-cold tube. PCSK9 was quantified by ELISA (R&D System, Minneapolis, MN, USA). Briefly, the experiments were carried out at 37 °C, following the manufacturer’s instructions. Before starting the assay, human PCSK9 standard curve (20.0, 10.0, 5.0, 2.5, 1.25, and 0.625 ng/mL) was prepared by serial dilutions from a 40 ng/mL stock. 100 µL of the Assay Diluent RD1-9 (provided into the kit) were placed in each well, before adding the standards and the samples (50 µL) and incubating the ELISA plate for 2 h at RT. Subsequently, wells were washed 4 times with the wash buffer, and 200 µL of human PCSK9-conjugate (HRP-labelled anti-PCSK9) was added to each well for 2 h at RT. Following aspiration, wells was washed 4 times with the kit wash buffer. After the last wash, 200 µL of substrate solution were added to the wells and allowed to incubate for 30 min at RT. The reaction was stopped with 50 µL of the stop solution (2 M sulfuric acid) and the absorbance at 450 nm was measured using Synergy H1 microplate (Winooski, VT, USA).

[1] = test system: LDLR on HepG2 cell surface; test: In-cell Western (ICW) assay, LDLR localized on HepG2 cell surface; format: cell-based, human
Procedure: For the experiments, a total of 3 × 10^4 HepG2 cells/well were seeded in 96-well plates. The following day, cells were washed with PBS and then starved overnight (O/N) in DMEM without FBS and antibiotics. After starvation, HepG2 cells were treated with 4.0 μg/mL PCSK9-WT and 4.0 μg/mL PCSK9 + peptides P5 and/or P5-met (50 µM) and vehicle (H2O) for 2 h at 37 °C under 5% CO2 atmosphere. Subsequently, they were fixed in 4% paraformaldehyde for 20 min at room temperature (RT). Cells were washed 5 times with 100 µL of PBS/well (each wash was for 5 min at RT) and the endogenous peroxides activity quenched adding 3% H2O2 for 20 min at RT. Non-specific sites were blocked with 100 µL/well of 5% bovine serum albumin (BSA, Sigma) in PBS for 1.5 h at RT. LDLR primary antibody solution (1:3000 in 5% BSA in PBS, 25 µL/well) was incubated O/N at +4 °C. Subsequently, the primary antibody solution was discarded and each sample was washed 5 times with 100 µL/well of PBS (each wash was for 5 min at RT). Goat anti-rabbit Ig-HRP secondary antibody solution (Santa Cruz) (1:6000 in 5% BSA in PBS, 50 µL/well), was added and incubated 1 h at RT. The secondary antibody solution was washed 5 times with 100 µL/well of PBS (each wash for 5 min at RT). Freshly prepared TMB substrate (Pierce, 100 µL/well) was added and the plate was incubated at RT until desired color was developed. The reaction was stopped with 2 M H2SO4 and then the absorbance at 450 nm was measured using the microplate reader Synergy H1 (Winooski, VT, USA). After the read, cells were stained by adding 1× Janus Green stain, incubating for 5 min at RT. The dye was removed and the sample washed 5 times with water. Afterward 100 µL 0.5 M HCl for well were added and incubated for 10 min. After 10 seconds shaking, the OD at 595 nm was measured using the microplate reader Synergy H1 (Winooski, VT, USA).

## H-LPKHSDAD-OH [Peptide P5-met]
Secreted mature PCSK9
  Decrease of the secretion of mature PCSK9: 22.2 ± 4.9%
[1]; HepG2, 50 µM, without added PCSK9, mean ± SD
  LDLR localized on the cellular membranes of HepG2 cells versus the control: 145.2 ±15.2%
[1]; peptide 50 µM + PCSK9 4 µg/mL, 2 h, % of control, mean ± SD
  LDLR level on HepG2 cell surface restored, co-incubation with PCSK9: 90.1 ± 0.1%
